Here are results for 11 compounds from PubChem BioAssay (NCI).

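Dose response: 5 concentrations. Exposure: 48 h. Format: 96-well plates. Endpoint: linear interpolation; highest concentration if not reached. GI50 is the concentration that inhibits growth by half. TGI denotes the concentration required for complete inhibition of growth.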 Some results are limits rather than exact numbers.

Among the test systems are M14 melanoma; RPMI-8226 leukemia; SNB-75 CNS; MDA-MB-435; HCT-116 colon; HCT-15 colon; SN12C renal; PC-3 prostate.
Experiment in all cases: NCI anticancer screen, dose series, 48 h

On to `O=C(Nc1ncc(Cc2cccc(C(F)(F)F)c2)s1)c1ccc2c(c1)OCCO2`, for which the GI50 in the test with M14 melanoma was 0.224 µM; with RPMI-8226 leukemia, 0.483 µM; in the test on SNB-75 CNS it was 0.185 µM; in the test with MDA-MB-435 it was 0.0352 µM; with HCT-116 colon, 0.32 µM; with HCT-15 colon it was 0.139 µM. Moreover, the GI50 in the test on SN12C renal was 0.592 µM; with PC-3 prostate, 0.341 µM. For the same compound, the TGI was above 48.8 µM in the test on M14 melanoma; above 100 µM with RPMI-8226 leukemia; 7.17 µM with SNB-75 CNS; 0.172 µM in the test on MDA-MB-435; above 100 µM in the test on HCT-116 colon; above 100 µM in the test with HCT-15 colon. The TGI with SN12C renal and in the test with PC-3 prostate was above 100 µM each time.
`COC(=O)c1c2c(c(C)[n+]([O-])c1C)C(=O)C(NCc1ccc(Br)cc1)=CC2=O`: the GI50 in the test on M14 melanoma is 1.14 µM; in the test on SNB-75 CNS it was 2.2 µM; in the test with MDA-MB-435 it was 1.55 µM; in the test with HCT-116 colon, 1.23 µM; with HCT-15 colon, 1.44 µM; in the test on SN12C renal, 1.66 µM. Also, the TGI is 2.46 µM in the test with M14 melanoma; 6.79 µM with SNB-75 CNS; 2.96 µM in the test on MDA-MB-435; 3.77 µM in the test with HCT-116 colon; 3.91 µM with HCT-15 colon; 4.09 µM in the test on SN12C renal.
For the compound `C=C(C)[C@@H]1CC[C@]2(CN)CC[C@]3(C)[C@H](CC[C@@H]4[C@@]5(C)CCCNC(C)(C)[C@@H]5CC[C@]43C)[C@@H]12`, the GI50 in the test with M14 melanoma is 1.69 µM; in the test with SNB-75 CNS it was 1.63 µM; with MDA-MB-435, 1.6 µM; in the test on HCT-116 colon it was 1.42 µM; in the test with HCT-15 colon, 1.19 µM; in the test with SN12C renal it was 1.75 µM. In addition, the GI50 in the test with PC-3 prostate was 1.77 µM. In addition, the TGI in the test on M14 melanoma worked out at 3.18 µM; in the test with SNB-75 CNS, 3.11 µM; in the test on MDA-MB-435 it was 2.98 µM; in the test on HCT-116 colon, 2.96 µM; in the test on HCT-15 colon, 2.49 µM; with SN12C renal, 3.31 µM. The compound also returned a TGI in the test with PC-3 prostate of 3.2 µM.
`COc1cc(/C=C2\CCCCC3=C2N=C2SC(C)=CN2C3c2cc(OC)c(OC)c(OC)c2)cc(OC)c1OC` (stereo unspecified): the GI50 was 23.7 µM in the test with M14 melanoma; 0.013 µM in the test on RPMI-8226 leukemia; 1.9 µM in the test with SNB-75 CNS; 24.3 µM with MDA-MB-435; 7.32 µM with HCT-116 colon; 61.8 µM in the test on SN12C renal. The TGI in the test on M14 melanoma is above 100 µM; with RPMI-8226 leukemia it was above 100 µM; in the test on SNB-75 CNS it was 9.09 µM; with MDA-MB-435, above 100 µM; in the test with HCT-116 colon it was above 100 µM; with SN12C renal it was above 100 µM.
`CCSc1nc(N=Cc2ccccc2O)c2cn[nH]c2n1`: the GI50 in the test on M14 melanoma was 17.4 µM; with RPMI-8226 leukemia, 23.2 µM; with MDA-MB-435 it was 19.7 µM; in the test on HCT-116 colon, 25.7 µM; in the test with HCT-15 colon, 39.8 µM; with SN12C renal it was 26.3 µM. In the test with PC-3 prostate, the GI50 was 28 µM. For the same compound, the TGI was 33 µM in the test with M14 melanoma; above 100 µM with RPMI-8226 leukemia; 72.8 µM in the test with MDA-MB-435; above 100 µM in the test on HCT-116 colon; above 100 µM in the test with HCT-15 colon; 95.1 µM in the test on SN12C renal. Also, the TGI with PC-3 prostate is 72.7 µM.
In the case of `CNc1nc(N)nc(Nc2ccc(I)cc2)c1N=O`, the TGI with RPMI-8226 leukemia, in the test on SNB-75 CNS, in the test with MDA-MB-435, in the test with HCT-116 colon, with HCT-15 colon and with SN12C renal was above 100 µM throughout. Also, in the test with PC-3 prostate, the TGI is above 100 µM.
`NC(N)=Nc1nc2ccccc2o1`: the GI50 with M14 melanoma, in the test on SNB-75 CNS, in the test on MDA-MB-435, with HCT-116 colon, in the test with HCT-15 colon and in the test on SN12C renal was above 100 µM each time. Besides, the GI50 with PC-3 prostate is above 100 µM. Besides, the TGI in the test on M14 melanoma, with SNB-75 CNS, in the test with MDA-MB-435, in the test on HCT-116 colon, with HCT-15 colon and in the test with SN12C renal was above 100 µM each time. Further, the TGI with PC-3 prostate is above 100 µM.
Turning to `Cc1nc2sccn2c1-c1nc2sccn2c1/C=C1/C(=O)Nc2ccccc21`, the GI50 was 3.99 µM with M14 melanoma; 2.38 µM with SNB-75 CNS; 0.53 µM in the test on MDA-MB-435; 3.3 µM with HCT-116 colon; 3.09 µM with HCT-15 colon; 16.8 µM in the test on SN12C renal. For the same compound, the GI50 in the test on PC-3 prostate was 2.32 µM. Besides, the TGI with M14 melanoma was above 100 µM; with SNB-75 CNS, 16 µM; in the test on MDA-MB-435, 2.52 µM; in the test on HCT-116 colon it was 30 µM; in the test with HCT-15 colon, 20.7 µM; with SN12C renal, above 100 µM. In the test on PC-3 prostate, the TGI was 46.4 µM.
`O=C(O)c1ccc(CNCc2ccccc2)cc1`: the TGI with M14 melanoma, with RPMI-8226 leukemia, in the test on MDA-MB-435, in the test with HCT-116 colon, in the test on HCT-15 colon and in the test on SN12C renal was above 100 µM each time. The same compound came in with a TGI in the test with PC-3 prostate above 100 µM.
Turning to `COc1cccc2c1O/C(=C\c1ccc([N+](=O)[O-])s1)C2=O`, the GI50 in the test on M14 melanoma is 3.06 µM; in the test on RPMI-8226 leukemia it was 1.7 µM; in the test on SNB-75 CNS, 2.33 µM; in the test on HCT-116 colon, 2.04 µM; in the test on HCT-15 colon, 0.474 µM; with PC-3 prostate, 1.7 µM. In addition, the TGI was above 100 µM in the test with M14 melanoma; above 20.6 µM with RPMI-8226 leukemia; above 32.5 µM in the test on SNB-75 CNS; above 100 µM in the test with HCT-116 colon; 2.34 µM with HCT-15 colon; above 21.3 µM with PC-3 prostate.
For the compound `COc1ccc(-c2cc(=O)oc3c4c(ccc23)OCN(Cc2ccc(F)cc2)C4)cc1`, the GI50 with RPMI-8226 leukemia is 15.4 µM; in the test with SNB-75 CNS, 6.62 µM; in the test on MDA-MB-435, 16.5 µM; in the test with HCT-116 colon, 13.6 µM; in the test on HCT-15 colon, 15.4 µM; in the test with SN12C renal it was 15.6 µM. Besides, the GI50 in the test on PC-3 prostate was 15.8 µM. Moreover, the TGI in the test on RPMI-8226 leukemia came out at 37.1 µM; in the test on SNB-75 CNS it was 25.3 µM; in the test with MDA-MB-435, 34.7 µM; in the test on HCT-116 colon, 27.7 µM; with HCT-15 colon, 31.8 µM; with SN12C renal, 32.2 µM. Further, the TGI with PC-3 prostate came to 44.1 µM.
